Patent US20050220803A1, “Use of an organ-specific self-pathogen for treatment of a non-autoimmune disease of said organ” (Yeda Research and Development Co. Ltd., priority 2002, published 2005)
“Also recorded” adds a separate entry of the source.

Columns and labels:
[1] = tested on: retinal ganglion cells (RGCs); test: Partial optic nerve crush injury: RGC survival after active immunization; assay type: in vivo, rats (SPD, Fisher, Lewis)
[2] = tested on: experimental autoimmune uveoretinitis (EAU); details: cited from earlier work; for uveitogenicity / immunopathogenicity: rat, in vivo
[3] = tested on: retinal ganglion cells (RGCs); test: Glutamate toxicity: RGC loss after intravitreal L-glutamate injection and immunization; assay type: in vivo; details: Lewis rats
spinal cord = test: Recovery from spinal cord contusion (open-field locomotor score); assay type: in vivo; details: female Lewis rats; contusion at T8; 100 μg in CFA (0.5 mg/ml) within 1 h after contusion
[4] = tested on: experimental autoimmune uveoretinitis (EAU); test: Induction of uveitis / EAU by the peptide; assay type: in vivo; details: Lewis rats
[5] = tested on: retinal ganglion cells (RGCs); test: RGC survival after immunization in the absence of insult; details: for percentage of RGC survival (mean ± SEM) vs PBS-injected controls: immunization without insult
[6] = tested on: retinal ganglion cells (RGCs); details: glutamate insult or consequences of axonal injury; conditions where R16 protects; cited from earlier work
[7] = Fisher rats, 200 μg peptide in CFA immediately after optic nerve crush
[8] = Fisher rats, 200 μg peptide in CFA immediately after optic nerve crush, PBS control 109±12

DTALASST [M-8 analog]
RGC survival compared with PBS-injected controls [1, 7]: Significantly more RGCs
surviving RGCs per square millimeter (mean ± SEM) [1, 8]: 159±19 per square millimeter
uveitogenicity / immunopathogenicity [2]: immunogenic, but not immunopathogenic

ADGSSWEGVGVVPVD (ADGSSWEGVGVVPDV) [Peptide R16]
percentage of RGC loss (mean ± SEM) relative to normal retinas ([3]; 400 nmol L-glutamate intravitreal, 30 μg peptide in CFA (0.5 mg/ml) immediately after, PBS in CFA control 28±4%): 14±2%
protection of RGCs from glutamate toxicity ([3]; peptide emulsified in CFA at 2.5 mg/ml, compared with PBS in CFA, data not shown): not protective and even caused additional neuronal loss
surviving RGCs per square millimeter (mean ± SEM) ([1]; Fisher rats, 30 μg in CFA (2.5 mg/ml) immediately after optic nerve crush, PBS control 114±9): 183±16 per square millimeter
surviving RGCs per square millimeter (mean ± SEM) ([1]; Fisher rats, 30 μg in CFA one week before crush, booster 30 μg in IFA after injury, PBS control 89±10): 165±22 per square millimeter
surviving RGCs per square millimeter (mean ± SEM) ([1]; Lewis rats, 30 μg in CFA (2.5 mg/ml) immediately after optic nerve crush, PBS control 73±10): 192±8 per square millimeter
surviving RGCs per square millimeter (mean ± SEM) ([1]; Lewis rats, 30 μg in CFA one week before crush, booster 30 μg in IFA after injury, PBS control 95±22, not statistically significant): 117±21 per square millimeter
maximal benefit after a neuronal insult (surviving RGCs vs PBS) ([1]; Lewis rats, 192±8 vs 73±10 surviving RGCs/mm^2): 263%
surviving RGCs per square millimeter (mean ± SEM) ([1]; SPD rats, 30 μg in CFA (2.5 mg/ml) immediately after optic nerve crush, PBS control 60±14): 150±13 per square millimeter
recovery of motor activity (open-field motor score) vs PBS in CFA (spinal cord): did not affect spinal cord recovery; also recorded: At no time were any differences observed
clinical onset of EAU, day after immunization [4]: 10 days
peak of inflammation (EAU), day after immunization [4]: 14 days
induction of uveitis ([2]; Lewis rats, but not SPD or Fisher rats): known to cause uveitis in Lewis rats
percentage of RGC survival (mean ± SEM) vs PBS-injected controls ([5]; Fisher rats): 97±8%
percentage of RGC survival (mean ± SEM) vs PBS-injected controls ([5]; Lewis rats, 2 weeks after vaccination): 83±5%
maximal loss of RGCs ([5]; non-injured Lewis rats, 2 weeks after vaccination): ~17%

TSSEAATE [G-8 analog]
RGC survival compared with PBS-injected controls ([1]; Fisher rats, 500 μg peptide in CFA immediately after optic nerve crush): Significantly more RGCs survived
surviving RGCs per square millimeter (mean ± SEM) ([1]; Fisher rats, 500 μg peptide in CFA immediately after optic nerve crush, PBS control 90±11): 175±15 per square millimeter
uveitogenicity / immunopathogenicity [2]: immunogenic, but not immunopathogenic

DTNLASST [Peptide M-8]
RGC survival compared with PBS-injected controls [1, 7]: Significantly more RGCs
surviving RGCs per square millimeter (mean ± SEM) [1, 8]: 153±10 per square millimeter
uveitogenicity / immunopathogenicity [2]: uveitogenic

TSSEVATE [Peptide G-8]
RGC survival compared with PBS-injected controls [1, 7]: Significantly more RGCs
surviving RGCs per square millimeter (mean ± SEM) [1, 8]: 159±5 per square millimeter
uveitogenicity / immunopathogenicity [2]: uveitogenic

B1: MBP: myelin basic protein, a myelin antigen (protein, UniProt P02688 2-195, looked up)
Myelin basic protein: ASQKRPSQRHGSKYLATASTMDHARHGFLPRHRDTGILDSIGRFFSGDRGAPKRGSGKVPWLKQSRSPLPSHARSRPGLCHMYKDSHTRTTHYGSLPQKSQRTQDENPVVHFFKNIVTPRTPPPSQGKGRGLSLSRFSWGAEGQKPGFGYGGRASDYKSAHKGFKGAYDAQGTLSKIFKLGGRDSRSGSPMARR
protective effect on RGCs by vaccination [6]: no such protective effect
